Data reported in ChEMBL document CHEMBL1145347, “A gatekeeper residue for inhibitor sensitization of protein tyrosine phosphatases” (Bioorg Med Chem Lett, 2006).

Tests used:
[1] = target: Tyrosine-protein phosphatase non-receptor type 1 (Homo sapiens, UniProt P18031, I219A); assay: Inhibition of PTP1B I219A mutant
[2] = target: T1, Tyrosine-protein phosphatase non-receptor type 1 (Homo sapiens) (UniProt P18031); assay: Selectivity for PTP1B V49A over wild type PTP1B
T1 sequence (whole entry): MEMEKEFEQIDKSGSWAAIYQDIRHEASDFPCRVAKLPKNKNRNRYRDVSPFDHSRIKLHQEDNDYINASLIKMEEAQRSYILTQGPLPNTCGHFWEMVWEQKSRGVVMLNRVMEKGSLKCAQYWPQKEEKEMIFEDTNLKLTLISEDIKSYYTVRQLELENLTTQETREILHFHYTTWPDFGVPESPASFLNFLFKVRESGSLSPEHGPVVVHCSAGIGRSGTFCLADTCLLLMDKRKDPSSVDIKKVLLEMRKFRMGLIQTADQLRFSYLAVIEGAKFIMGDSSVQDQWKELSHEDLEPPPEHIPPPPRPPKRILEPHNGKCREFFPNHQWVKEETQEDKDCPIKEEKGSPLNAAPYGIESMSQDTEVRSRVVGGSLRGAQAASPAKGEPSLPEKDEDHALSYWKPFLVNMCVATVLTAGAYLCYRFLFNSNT

[3] = tested on: Tyrosine-protein phosphatase non-receptor type 1 (Homo sapiens), P18031 [UNDEFINED MUTATION]; assay: Selectivity for PTP1B I219A over wild type PTP1B
[4] = target: Tyrosine-protein phosphatase non-receptor type 1 (Homo sapiens, UniProt P18031, V49A); assay: Inhibition of PTP1B V49A mutant
[5] = target: T2, Tyrosine-protein phosphatase non-receptor type 1 (Homo sapiens, UniProt P18031); assay: Inhibition of wild type PTP1B
T2 sequence (P18031 whole entry): T1 sequence (whole entry)

[6] = target: T3, Tyrosine-protein phosphatase non-receptor type 2 (Homo sapiens, UniProt P17706); assay: Inhibition of TCPTP
T3 sequence (P17706 whole entry): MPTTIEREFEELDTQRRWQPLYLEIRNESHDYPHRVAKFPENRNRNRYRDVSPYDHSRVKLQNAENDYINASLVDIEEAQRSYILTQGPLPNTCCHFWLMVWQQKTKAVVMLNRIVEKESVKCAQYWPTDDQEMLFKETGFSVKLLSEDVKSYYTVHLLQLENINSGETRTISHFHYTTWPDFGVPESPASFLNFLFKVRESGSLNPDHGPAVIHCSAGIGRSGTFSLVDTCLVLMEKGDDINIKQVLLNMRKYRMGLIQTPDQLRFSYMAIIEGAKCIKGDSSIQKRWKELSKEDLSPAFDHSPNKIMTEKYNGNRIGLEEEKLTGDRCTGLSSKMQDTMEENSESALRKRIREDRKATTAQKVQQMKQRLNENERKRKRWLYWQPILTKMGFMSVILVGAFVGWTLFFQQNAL

[7] = target: Tyrosine-protein phosphatase non-receptor type 2 (Homo sapiens, UniProt P17706, I220A); assay: Inhibition of TCPTP I220A mutant
Tyrosine-protein phosphatase non-receptor type 2 (Homo sapiens, UniProt P17706, I220A), sequence (P17706 whole entry I220A): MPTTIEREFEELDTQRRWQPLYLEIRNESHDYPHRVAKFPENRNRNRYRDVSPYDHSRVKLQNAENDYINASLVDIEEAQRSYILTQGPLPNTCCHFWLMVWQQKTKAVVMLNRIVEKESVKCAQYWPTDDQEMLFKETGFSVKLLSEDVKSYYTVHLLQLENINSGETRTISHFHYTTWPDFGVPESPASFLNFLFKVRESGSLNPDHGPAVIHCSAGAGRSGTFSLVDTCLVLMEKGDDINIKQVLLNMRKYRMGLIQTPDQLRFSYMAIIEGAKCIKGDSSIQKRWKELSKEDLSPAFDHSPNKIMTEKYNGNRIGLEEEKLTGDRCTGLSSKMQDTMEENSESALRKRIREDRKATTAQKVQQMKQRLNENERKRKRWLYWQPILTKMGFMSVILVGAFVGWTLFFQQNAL

Tyrosine-protein phosphatase non-receptor type 1 (Homo sapiens, UniProt P18031, I219A), sequence (P18031 whole entry I219A): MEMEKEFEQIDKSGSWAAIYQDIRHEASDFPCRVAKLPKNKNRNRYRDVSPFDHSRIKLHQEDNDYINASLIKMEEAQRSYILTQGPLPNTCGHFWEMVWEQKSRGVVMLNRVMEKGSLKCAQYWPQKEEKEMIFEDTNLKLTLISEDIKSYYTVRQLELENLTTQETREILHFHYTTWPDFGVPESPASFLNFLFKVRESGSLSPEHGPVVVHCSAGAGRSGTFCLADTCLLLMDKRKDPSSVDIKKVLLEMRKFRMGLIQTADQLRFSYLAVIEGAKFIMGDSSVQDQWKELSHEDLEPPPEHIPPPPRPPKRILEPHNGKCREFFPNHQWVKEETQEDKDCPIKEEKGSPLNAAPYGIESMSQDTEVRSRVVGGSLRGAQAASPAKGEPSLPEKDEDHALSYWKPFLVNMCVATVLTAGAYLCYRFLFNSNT
Tyrosine-protein phosphatase non-receptor type 1 (Homo sapiens, UniProt P18031, V49A), sequence (P18031 whole entry V49A): as the sequence (P18031 whole entry I219A) above, with V49A, A219I counted along it

Ki [1] [µM] | Selectivity ratio [2] | Selectivity ratio [3] | Ki [4] [µM] | Ki [5] [µM] | Ki [6] [µM] | Ki [7] [µM] | Compound
10 | > 10 | > 30 | 27 | > 300 | – | – | CC1(C)Cc2c(sc(NC(=O)C(=O)O)c2C(=O)O)C(C)(C)C1
0.23 | – | – | – | 6 | 10 | 0.71 | O=C(O)C(=O)Nc1sc2c(c1C(=O)O)CCNC2
